# Legend:
# Experiment in all cases: biochemical
# Design in all cases: University of Dundee kinase panel, percent inhibition of phosphorylation at 1 uM RAFi, ATP at Km
# Conditions in all cases: read-out: Dundee KSS %inh at 1 uM
# CHK1 = target: T1, CHK1 (Homo sapiens, UniProt O14757)
# T1 construct: gene CHEK1
# Procedure: (§1) The METi and RAFi were screened against kinase panels (SelectScreen, Invitrogen; University of Dundee, Division of Signal Transduction Therapy, UK; Upstate Biotechnology/Millipore, Billerica, MA). In these selectivity assays the concentration of ATP was set to the Km value of ATP for each kinase tested to allow for a relative potency comparison between the various kinases. The compounds were tested at 1 µM final concentration. […] Supplementary file pone.0039653.s002.pdf: Figure S2 Kinase Selectivity Screen of RAFi. (A) Kinase selectivity screen (KSS) performed at University of Dundee (Division of Signal Transduction Therapy). Values in % inhibition of phosphorylation given 1 µM of RAFi compared to control. (B) KSS performed at Invitrogen (Selectscreen Service) compared to control. Values in % inhibition of phosphorylation given 1 µM of RAFi. (C) Cell based dose response kinase inhibition of indicated kinases by RAFi. (PDF) Click here for additional data file.
# chicken CSK = chicken CSK (Gallus gallus, UniProt P41239)
# Procedure: as §1
# P70S6K = target: T2, P70S6K (Homo sapiens, UniProt P23443)
# T2 construct: gene RPS6KB1
# Procedure: as §1
# SGK = target: T3, SGK (Homo sapiens, UniProt O00141)
# T3 construct: gene SGK1
# Procedure: as §1
# PKD1 = target: T4, PKD1 (Homo sapiens, UniProt Q15139)
# T4 construct: gene PRKD1
# Procedure: as §1
# MLCK = target: T5, MLCK (Homo sapiens, UniProt Q15746)
# T5 construct: gene MYLK
# Procedure: as §1
# MST2 = target: T6, MST2 (Homo sapiens, UniProt Q13188)
# T6 construct: gene STK3
# Procedure: as §1
# rat RSK1 = target: T7, rat RSK1 (Rattus norvegicus, UniProt Q63531)
# T7 construct: gene Rps6ka1
# Procedure: as §1
# MSK1 = target: T8, MSK1 (Homo sapiens, UniProt O75582)
# T8 construct: gene RPS6KA5
# Procedure: as §1
# CKIIa = target: T9, CKIIa (Homo sapiens, UniProt P68400)
# T9 construct: gene CSNK2A1
# Procedure: as §1
# PLK1preactivated = target: T10, PLK1preactivated (Homo sapiens, UniProt P53350)
# T10 construct: gene PLK1
# Procedure: as §1
# MNK2 = target: T11, MNK2 (Homo sapiens, UniProt Q9HBH9)
# T11 construct: gene MKNK2
# Procedure: as §1
# rat ROCKII = target: T12, rat ROCKII (Rattus norvegicus, UniProt Q62868)
# T12 construct: gene Rock2
# Procedure: as §1
# p38g = target: T13, p38g (Homo sapiens, UniProt P53778)
# T13 construct: gene MAPK12
# Procedure: as §1
# DYRK2 = target: T14, DYRK2 (Homo sapiens, UniProt Q92630)
# T14 sequence (Q92630 1-601): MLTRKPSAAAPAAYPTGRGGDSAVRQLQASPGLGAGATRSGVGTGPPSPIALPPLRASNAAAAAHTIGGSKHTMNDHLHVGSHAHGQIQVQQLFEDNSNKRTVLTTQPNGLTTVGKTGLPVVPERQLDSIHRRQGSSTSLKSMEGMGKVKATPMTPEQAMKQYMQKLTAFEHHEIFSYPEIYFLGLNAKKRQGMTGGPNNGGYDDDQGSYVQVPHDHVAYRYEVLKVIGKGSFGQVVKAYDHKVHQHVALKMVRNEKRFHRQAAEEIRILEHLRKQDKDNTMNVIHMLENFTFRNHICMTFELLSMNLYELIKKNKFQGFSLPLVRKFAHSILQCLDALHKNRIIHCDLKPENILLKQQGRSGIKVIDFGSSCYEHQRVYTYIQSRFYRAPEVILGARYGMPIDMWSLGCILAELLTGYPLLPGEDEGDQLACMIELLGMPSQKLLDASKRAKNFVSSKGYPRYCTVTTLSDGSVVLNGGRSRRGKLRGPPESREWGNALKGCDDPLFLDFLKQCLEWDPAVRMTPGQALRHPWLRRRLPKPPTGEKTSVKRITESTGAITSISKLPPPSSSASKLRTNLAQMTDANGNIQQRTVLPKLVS
# Procedure: as §1
# DYRK3 = DYRK3 (Homo sapiens, UniProt O43781)
# Procedure: as §1
# T10 sequence (P53350 whole entry): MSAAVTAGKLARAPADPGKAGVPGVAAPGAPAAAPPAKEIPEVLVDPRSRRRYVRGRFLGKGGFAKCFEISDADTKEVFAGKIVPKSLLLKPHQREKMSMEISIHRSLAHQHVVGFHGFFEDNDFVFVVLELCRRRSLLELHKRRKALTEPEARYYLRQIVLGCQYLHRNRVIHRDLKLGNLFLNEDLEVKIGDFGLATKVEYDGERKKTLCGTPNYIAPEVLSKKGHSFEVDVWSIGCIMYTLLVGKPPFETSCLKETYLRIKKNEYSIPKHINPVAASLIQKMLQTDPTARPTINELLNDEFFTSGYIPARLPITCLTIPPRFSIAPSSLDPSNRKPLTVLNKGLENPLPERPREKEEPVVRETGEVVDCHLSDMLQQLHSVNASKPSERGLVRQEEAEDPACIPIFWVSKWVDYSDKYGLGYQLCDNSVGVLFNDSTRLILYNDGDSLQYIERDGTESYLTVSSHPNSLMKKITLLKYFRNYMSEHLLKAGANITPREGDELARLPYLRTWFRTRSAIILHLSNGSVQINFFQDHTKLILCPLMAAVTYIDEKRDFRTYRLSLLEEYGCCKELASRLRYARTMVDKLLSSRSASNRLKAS
# T2 sequence (P23443 whole entry): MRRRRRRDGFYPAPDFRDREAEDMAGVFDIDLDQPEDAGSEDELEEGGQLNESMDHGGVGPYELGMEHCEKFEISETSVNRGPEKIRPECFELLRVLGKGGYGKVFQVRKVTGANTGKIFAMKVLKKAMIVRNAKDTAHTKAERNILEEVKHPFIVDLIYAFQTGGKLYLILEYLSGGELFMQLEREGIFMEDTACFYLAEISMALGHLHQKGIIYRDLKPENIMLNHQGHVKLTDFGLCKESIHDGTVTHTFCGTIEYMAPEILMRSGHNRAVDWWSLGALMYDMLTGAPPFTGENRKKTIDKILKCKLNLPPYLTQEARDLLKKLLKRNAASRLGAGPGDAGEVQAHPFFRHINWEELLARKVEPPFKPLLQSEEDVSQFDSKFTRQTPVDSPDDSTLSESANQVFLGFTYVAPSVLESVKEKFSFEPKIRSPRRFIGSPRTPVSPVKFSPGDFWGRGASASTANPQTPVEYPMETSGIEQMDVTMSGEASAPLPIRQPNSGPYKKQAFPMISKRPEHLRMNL
# T4 sequence (Q15139 whole entry): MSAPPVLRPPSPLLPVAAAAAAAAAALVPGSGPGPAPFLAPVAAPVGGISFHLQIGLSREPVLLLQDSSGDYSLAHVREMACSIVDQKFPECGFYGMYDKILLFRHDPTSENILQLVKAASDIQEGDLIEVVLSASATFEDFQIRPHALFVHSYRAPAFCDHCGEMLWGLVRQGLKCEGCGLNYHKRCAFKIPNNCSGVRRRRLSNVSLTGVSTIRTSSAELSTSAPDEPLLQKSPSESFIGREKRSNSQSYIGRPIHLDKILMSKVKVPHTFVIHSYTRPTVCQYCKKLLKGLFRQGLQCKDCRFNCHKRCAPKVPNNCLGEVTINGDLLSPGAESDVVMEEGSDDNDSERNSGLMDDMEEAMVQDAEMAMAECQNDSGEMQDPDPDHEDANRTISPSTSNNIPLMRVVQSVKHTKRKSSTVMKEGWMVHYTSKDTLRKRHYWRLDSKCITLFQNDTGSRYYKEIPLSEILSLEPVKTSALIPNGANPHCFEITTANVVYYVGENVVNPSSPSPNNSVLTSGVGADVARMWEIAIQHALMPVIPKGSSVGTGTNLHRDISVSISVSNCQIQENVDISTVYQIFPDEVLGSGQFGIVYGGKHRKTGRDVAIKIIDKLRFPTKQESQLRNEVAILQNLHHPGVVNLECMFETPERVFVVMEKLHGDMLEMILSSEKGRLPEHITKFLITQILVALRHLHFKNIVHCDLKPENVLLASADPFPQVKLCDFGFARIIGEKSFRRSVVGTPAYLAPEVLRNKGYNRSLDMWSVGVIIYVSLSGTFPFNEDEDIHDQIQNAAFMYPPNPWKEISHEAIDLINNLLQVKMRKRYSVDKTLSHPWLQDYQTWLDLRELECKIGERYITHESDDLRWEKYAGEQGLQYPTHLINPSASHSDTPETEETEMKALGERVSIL
# T9 sequence (P68400 whole entry): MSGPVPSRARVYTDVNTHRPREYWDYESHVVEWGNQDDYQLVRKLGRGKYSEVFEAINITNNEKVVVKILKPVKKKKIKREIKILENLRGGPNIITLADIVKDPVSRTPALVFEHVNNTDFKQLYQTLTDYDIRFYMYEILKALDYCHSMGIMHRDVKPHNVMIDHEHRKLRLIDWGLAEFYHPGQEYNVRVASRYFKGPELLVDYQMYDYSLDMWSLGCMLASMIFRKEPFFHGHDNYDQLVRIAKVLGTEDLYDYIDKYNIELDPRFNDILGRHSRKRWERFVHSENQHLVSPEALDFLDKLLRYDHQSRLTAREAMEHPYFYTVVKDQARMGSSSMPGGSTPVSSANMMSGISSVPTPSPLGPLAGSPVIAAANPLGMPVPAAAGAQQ
# T13 sequence (P53778 whole entry): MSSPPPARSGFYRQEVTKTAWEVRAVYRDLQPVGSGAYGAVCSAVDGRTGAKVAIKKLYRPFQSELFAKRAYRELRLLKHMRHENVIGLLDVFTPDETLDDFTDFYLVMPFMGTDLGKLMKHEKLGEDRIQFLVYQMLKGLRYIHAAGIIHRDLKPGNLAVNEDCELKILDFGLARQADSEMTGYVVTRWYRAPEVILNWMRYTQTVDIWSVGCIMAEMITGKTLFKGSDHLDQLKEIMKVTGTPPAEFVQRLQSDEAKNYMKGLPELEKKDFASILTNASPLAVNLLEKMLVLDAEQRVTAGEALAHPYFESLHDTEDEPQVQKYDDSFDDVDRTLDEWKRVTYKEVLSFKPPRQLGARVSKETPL
# T6 sequence (Q13188 whole entry): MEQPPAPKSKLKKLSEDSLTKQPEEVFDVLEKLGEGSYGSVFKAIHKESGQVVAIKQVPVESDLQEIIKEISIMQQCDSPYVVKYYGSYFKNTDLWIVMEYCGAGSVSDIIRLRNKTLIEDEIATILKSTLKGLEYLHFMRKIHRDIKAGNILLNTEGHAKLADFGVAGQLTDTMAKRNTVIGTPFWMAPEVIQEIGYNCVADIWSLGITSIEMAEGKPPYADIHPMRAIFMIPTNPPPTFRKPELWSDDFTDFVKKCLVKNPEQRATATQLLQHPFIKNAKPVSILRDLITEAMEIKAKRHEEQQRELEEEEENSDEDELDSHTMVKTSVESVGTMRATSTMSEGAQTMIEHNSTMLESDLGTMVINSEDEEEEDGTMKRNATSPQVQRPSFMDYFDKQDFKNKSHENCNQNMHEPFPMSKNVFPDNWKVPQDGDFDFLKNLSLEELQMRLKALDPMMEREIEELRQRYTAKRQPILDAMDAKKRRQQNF
# T11 sequence (Q9HBH9 whole entry): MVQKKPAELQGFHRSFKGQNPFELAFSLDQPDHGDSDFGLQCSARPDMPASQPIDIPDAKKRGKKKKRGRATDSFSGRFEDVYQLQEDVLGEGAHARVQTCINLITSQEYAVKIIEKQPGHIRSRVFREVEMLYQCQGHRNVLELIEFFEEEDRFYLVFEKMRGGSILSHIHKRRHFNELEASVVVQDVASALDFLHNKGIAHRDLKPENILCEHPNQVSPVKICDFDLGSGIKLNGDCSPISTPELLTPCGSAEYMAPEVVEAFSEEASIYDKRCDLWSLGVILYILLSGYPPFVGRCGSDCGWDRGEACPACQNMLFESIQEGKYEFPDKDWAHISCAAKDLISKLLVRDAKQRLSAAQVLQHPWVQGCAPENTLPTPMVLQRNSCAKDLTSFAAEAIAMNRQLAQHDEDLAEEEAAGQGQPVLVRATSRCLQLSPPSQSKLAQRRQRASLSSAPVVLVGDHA
# T3 sequence (O00141 whole entry): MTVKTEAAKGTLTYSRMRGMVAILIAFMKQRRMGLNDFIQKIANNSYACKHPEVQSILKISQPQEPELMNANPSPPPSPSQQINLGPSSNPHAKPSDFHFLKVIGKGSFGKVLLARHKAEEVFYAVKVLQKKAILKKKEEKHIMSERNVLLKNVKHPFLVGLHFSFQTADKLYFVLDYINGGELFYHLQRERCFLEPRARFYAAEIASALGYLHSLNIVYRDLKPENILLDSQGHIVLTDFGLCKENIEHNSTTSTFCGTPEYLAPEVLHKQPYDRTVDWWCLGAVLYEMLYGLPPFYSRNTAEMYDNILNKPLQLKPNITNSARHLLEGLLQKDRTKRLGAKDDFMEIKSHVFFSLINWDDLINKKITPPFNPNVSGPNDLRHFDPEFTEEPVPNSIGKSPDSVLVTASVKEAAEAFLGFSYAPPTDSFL
# Chain of DYRK3 (O43781 whole entry): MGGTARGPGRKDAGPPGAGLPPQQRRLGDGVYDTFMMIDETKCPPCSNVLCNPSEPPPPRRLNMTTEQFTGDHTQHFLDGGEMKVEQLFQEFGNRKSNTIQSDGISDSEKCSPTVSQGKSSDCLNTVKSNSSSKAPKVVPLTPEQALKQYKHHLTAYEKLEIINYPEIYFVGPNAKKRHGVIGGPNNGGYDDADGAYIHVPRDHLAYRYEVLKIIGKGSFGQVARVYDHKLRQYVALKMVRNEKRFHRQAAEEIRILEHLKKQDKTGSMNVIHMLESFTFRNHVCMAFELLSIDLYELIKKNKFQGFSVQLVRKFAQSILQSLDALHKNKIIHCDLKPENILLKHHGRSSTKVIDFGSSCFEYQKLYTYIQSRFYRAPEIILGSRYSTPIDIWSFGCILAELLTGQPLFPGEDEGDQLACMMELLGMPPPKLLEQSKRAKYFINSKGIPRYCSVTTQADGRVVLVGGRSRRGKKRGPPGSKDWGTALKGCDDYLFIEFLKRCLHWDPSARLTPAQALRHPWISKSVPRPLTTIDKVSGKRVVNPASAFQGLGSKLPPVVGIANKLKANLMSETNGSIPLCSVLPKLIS
smiles,measurement,setting,value
"N#CCCNc1nccc(-c2cn(CC(F)F)nc2-c2cnc3[nH]ccc3c2)n1 [RAFi, PF-04880594]",inhibition at 1 µM,CHK1,2%
same,inhibition at 1 µM,chicken CSK,27%
same,inhibition at 1 µM,P70S6K,-5%
same,inhibition at 1 µM,SGK,4%
same,inhibition at 1 µM,PKD1,47%
same,inhibition at 1 µM,MLCK,22%
same,inhibition at 1 µM,MST2,63%
same,inhibition at 1 µM,rat RSK1,29%
same,inhibition at 1 µM,MSK1,14%
same,inhibition at 1 µM,CKIIa,-2%
same,inhibition at 1 µM,PLK1preactivated,64%
same,inhibition at 1 µM,MNK2,12%
same,inhibition at 1 µM,rat ROCKII,25%
same,inhibition at 1 µM,p38g,4%
same,inhibition at 1 µM,DYRK2,23%
same,inhibition at 1 µM,DYRK3,11%

# Reference: publication PMC3382171 (PLoS ONE, 2012)
